Measurements published in US9730929B2, “Substituted aminoimidazopyridazines” (BAYER INTELLECTUAL PROPERTY GMBH, priority 2011, dated 2017).
Values belong to the compound of their own block, whether it stands above or below them.

Legend:
human full-length MKNK1 [1] = molecular target: T1, human full-length MKNK1 (Homo sapiens (Human), UniProt Q9BUB5, T344D); test: MKNK1 kinase high ATP assay (TR-FRET, 2 mM ATP); format: biochemical; details: ATP final conc. 2 mM; 15 min preincubation
Description: MKNK1-inhibitory activity at high ATP of compounds of the present invention after their preincubation with MKNK1 was quantified employing the TR-FRET-based MKNK1 high ATP assay as described in the following paragraphs.
As substrate for the kinase reaction the biotinylated peptide biotin-Ahx-[…] (C-terminus in amide form) was used, which can be purchased e.g. from the company Biosyntan (Berlin-Buch, Germany).
(§1) For the assay 50 nL of a 100 fold concentrated solution of the test compound in DMSO was pipetted into a black low volume 384 well microtiter plate (Greiner Bio-One, Frickenhausen, Germany), 2 μL of a solution of MKNK1 in aqueous assay buffer [50 mM HEPES pH 7.5, 5 mM magnesium chloride, 1.0 mM dithiothreitol, 0.005% (v/v) Nonidet-P40 (Sigma)] was added and the mixture was incubated for 15 min at 22° C. to allow pre-binding of the test compounds to the enzyme before the start of the kinase reaction. Then the kinase reaction was started by the addition of 3 μL of a solution of adenosine-tri-phosphate (ATP, 3.3 mM=>final conc. in the 5 μL assay volume is 2 mM) and substrate (0.1 μM=>final conc. in the 5 μL assay volume is 0.06 μM) in assay buffer and the resulting mixture was incubated for a reaction time of 30 min at 22° C. The concentration of MKNK1 was adjusted depending of the activity of the enzyme lot and was chosen appropriate to have the assay in the linear range, typical concentrations were in the range of 0.003 μg/mL. The reaction was stopped by the addition of 5 μL of a solution of TR-FRET detection reagents (5 nM streptavidine-XL665 [Cisbio Bioassays, Codolet, France] and 1 nM anti-ribosomal protein S6 (pSer236)-antibody from Invitrogen [#44921G] and 1 nM LANCE EU-W1024 labeled ProteinG [Perkin-Elmer, product no. 4D0071]) in an aqueous EDTA-solution (100 mM EDTA, 0.1% (w/v) bovine serum albumin in 50 mM HEPES pH 7.5).
The resulting mixture was incubated for 1 h at 22° C. to allow the formation of complex between the phosphorylated biotinylated peptide and the detection reagents. Subsequently the amount of phosphorylated substrate was evaluated by measurement of the resonance energy transfer from the Eu-chelate to the streptavidine-XL.

human full-length MKNK1 [2] = molecular target: T1, human full-length MKNK1; test: MKNK1 kinase assay (TR-FRET, 10 μM ATP); format: biochemical; details: ATP final conc. 10 μM; 15 min preincubation
Description: MKNK1-inhibitory activity of compounds of the present invention was quantified employing the MKNK1 TR-FRET assay as described in the following paragraphs.
As substrate for the kinase reaction the biotinylated peptide biotin-Ahx-[…] (C-terminus in amide form) was used which can be purchased e.g. form the company Biosyntan (Berlin-Buch, Germany).
as §1, with “16.7 μM=>final” for “3.3 mM=>final”, “10 μM)” for “2 mM)”, “45” for “30”, “0.05 μg/ml.” for “0.003 μg/mL.”, “[…]” for “S6”, “AD0071])” for “4D0071])”
The resulting mixture was incubated for 1 h at 22° C. to allow the formation of complex between the phosphorylated biotinylated peptide and the detection reagents. Subsequently the amount of phosphorylated substrate was evaluated by measurement of the resonance energy transfer from the Eu-chelate to the streptavidine-XL. Therefore, the fluorescence emissions at 620 nm and 665 nm after excitation at 350 nm were measured in a TR-FRET reader, e.g. a Rubystar (BMG Labtechnologies, Offenburg, Germany) or a Viewlux (Perkin-Elmer). The ratio of the emissions at 665 nm and at 622 nm was taken as the measure for the amount of phosphorylated substrate.

T1 sequence (Q9BUB5 other isoform, or with tags, fused parts or gaps T344D): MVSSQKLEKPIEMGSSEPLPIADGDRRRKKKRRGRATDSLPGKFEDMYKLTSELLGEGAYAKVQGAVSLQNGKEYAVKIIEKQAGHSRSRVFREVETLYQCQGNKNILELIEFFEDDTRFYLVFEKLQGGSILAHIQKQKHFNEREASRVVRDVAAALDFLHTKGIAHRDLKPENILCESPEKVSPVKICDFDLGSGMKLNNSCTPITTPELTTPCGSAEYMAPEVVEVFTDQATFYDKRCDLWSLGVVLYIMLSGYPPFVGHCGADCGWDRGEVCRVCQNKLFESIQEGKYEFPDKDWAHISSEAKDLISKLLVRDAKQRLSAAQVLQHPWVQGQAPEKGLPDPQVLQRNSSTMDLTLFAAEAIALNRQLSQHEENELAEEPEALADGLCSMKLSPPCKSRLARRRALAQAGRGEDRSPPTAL

SMILES: OC(CN(c1ccc2ncc(-c3cc4ccccc4o3)n2n1)C1CC1)c1ccccc1 (stereo not shown) [Example 16, 2-{[3-(1-Benzofuran-2-yl)imidazo[1,2-b]pyridazin-6-yl](cyclopropyl)amino}-1-phenylethanol]
IC50 (human full-length MKNK1 [1]): 24 nM

SMILES: COc1nccc2oc(-c3cnc4ccc(N(C)C(C)CO)nn34)cc12 (stereo not shown) [Example 17, 2-{[3-(4-Methoxyfuro[3,2-c]pyridin-2-yl)imidazo[1,2-b]pyridazin-6-yl](methyl)amino}propan-1-ol]
IC50 (human full-length MKNK1 [1]): 26 nM

SMILES: CN(CC(O)c1ccccc1)c1ccc2ncc(-c3cc4ccccc4o3)n2n1 (stereo not shown) [Example 10, 2-{[3-(1-Benzofuran-2-yl)imidazo[1,2-b]pyridazin-6-yl](methyl)amino}-1-phenylethanol]
IC50 (human full-length MKNK1 [2]): 3 nM
IC50 (human full-length MKNK1 [1]): 4 nM

SMILES: CC(CO)N(C)c1ccc2ncc(-c3cc4ccccc4o3)n2n1 (stereo not shown) [Example 19, 2-{[3-(1-Benzofuran-2-yl)imidazo[1,2-b]pyridazin-6-yl](methyl)amino}propan-1-ol]
IC50 (human full-length MKNK1 [1]): 47 nM

SMILES: CCOc1nccc2oc(-c3cnc4ccc(N(C)CC(O)c5ccccc5)nn34)cc12 (stereo not shown) [Example 25, 2-{[3-(4-Ethoxyfuro[3,2-c]pyridin-2-yl)imidazo[1,2-b]pyridazin-6-yl](methyl)amino}-1-phenylethanol]
IC50 (human full-length MKNK1 [1]): 5 nM

SMILES: CC(C)N(CC(O)c1ccccc1)c1ccc2ncc(-c3cc4ccccc4o3)n2n1 (stereo not shown) [Example 21, 2-{[3-(1-Benzofuran-2-yl)imidazo[1,2-b]pyridazin-6-yl](isopropyl)amino}-1-phenylethanol]
IC50 (human full-length MKNK1 [1]): 52 nM

IC50 (human full-length MKNK1 [1]): 10 nM
SMILES: COc1nccc2oc(-c3cnc4ccc(N(C)CC(C)O)nn34)cc12 (stereo not shown) [Example 15, 1-{[3-(4-Methoxyfuro[3,2-c]pyridin-2-yl)imidazo[1,2-b]pyridazin-6-yl](methyl)amino}propan-2-ol]

SMILES: CN(CC(O)c1ccccc1)c1ccc2ncc(-c3cc4ccccc4o3)n2n1 (single isomer, unassigned; (+)) [Example 13, (+)-2-{[3-(1-Benzofuran-2-yl)imidazo[1,2-b]pyridazin-6-yl](methyl)amino}-1-phenylethanol]
IC50 (human full-length MKNK1 [1]): 24 nM

SMILES: COc1cccc2oc(-c3cnc4ccc(N(C)C[C@H](O)c5cccc(O)c5)nn34)cc12 [Example 9, 3-[(1R)-1-Hydroxy-2-{[3-(4-methoxy-1-benzofuran-2-yl)imidazo[1,2-b]pyridazin-6-yl](methyl)amino}eth-yl]phenol]
IC50 (human full-length MKNK1 [2]): 2 nM
IC50 (human full-length MKNK1 [1]): 4 nM

SMILES: OC(CN(c1ccc2ncc(-c3cc4ccccc4o3)n2n1)C1CC1)c1ccc(F)cc1 (stereo not shown) [Example 18, 2-{[3-(1-Benzofuran-2-yl)imidazo[1,2-b]pyridazin-6-yl](cyclopropyl)amino}-1-(4-fluorophenyl)ethanol]
IC50 (human full-length MKNK1 [1]): 42 nM

SMILES: CN(CC(O)c1ccccc1)c1ccc2ncc(-c3cc4ccccc4o3)n2n1 (single isomer, unassigned; (-)) [Example 12, (−)-2-{[3-(1-Benzofuran-2-yl)imidazo[1,2-b]pyridazin-6-yl](methyl)amino}-1-phenylethanol]
IC50 (human full-length MKNK1 [1]): 4 nM

IC50 (human full-length MKNK1 [2]): 1 nM
SMILES: CN(C[C@H](O)c1cccc(O)c1)c1ccc2ncc(-c3cc4ccccc4o3)n2n1 [Example 3]

SMILES: CCN(CCO)c1ccc2ncc(-c3cc4ccccc4o3)n2n1 [Example 1]
IC50 (human full-length MKNK1 [2]): 7 nM
IC50 (human full-length MKNK1 [1]): 20 nM

SMILES: CN(CC(O)c1ccccc1)c1ccc2ncc(-c3cc4ccncc4o3)n2n1 (stereo not shown) [Example 22, 2-{[3-(Furo[2,3-c]pyridin-2-yl)imidazo[1,2-b]pyridazin-6-yl](methyl)amino}-1-phenylethanol]
IC50 (human full-length MKNK1 [1]): 1 nM

SMILES: CN(CC(O)c1cccnc1)c1ccc2ncc(-c3cc4ccccc4o3)n2n1 (stereo not shown) [Example 11, 2-{[3-(1-Benzofuran-2-yl)imidazo[1,2-b]pyridazin-6-yl](methyl)amino}-1-(pyridin-3-yl)ethanol]
IC50 (human full-length MKNK1 [1]): 2 nM

SMILES: CN(CC(O)c1ccccc1)c1ccc2ncc(-c3cc4cnccc4o3)n2n1 (stereo not shown) [Example 23, 2-{[3-(Furo[3,2-c]pyridin-2-yl)imidazo[1,2-b]pyridazin-6-yl](methyl)amino}-1-phenylethanol]
IC50 (human full-length MKNK1 [1]): 1 nM

SMILES: CC(O)CN(C)c1ccc2ncc(-c3cc4ccccc4o3)n2n1 (stereo not shown) [Example 14, 1-{[3-(1-Benzofuran-2-yl)imidazo[1,2-b]pyridazin-6-yl](methyl)amino}propan-2-ol]
IC50 (human full-length MKNK1 [1]): 9 nM

SMILES: COc1nccc2oc(-c3cnc4ccc(N(C)CC(O)c5ccccc5)nn34)cc12 (stereo not shown) [Example 24, 2-{[3-(4-Methoxyfuro[3,2-c]pyridin-2-yl)imidazo[1,2-b]pyridazin-6-yl](methyl)amino}-1-phenylethanol]
IC50 (human full-length MKNK1 [1]): 3 nM

SMILES: CC(C)CN(CC(O)c1ccccc1)c1ccc2ncc(-c3cc4ccccc4o3)n2n1 (stereo not shown) [Example 20, 2-{[3-(1-Benzofuran-2-yl)imidazo[1,2-b]pyridazin-6-yl](isobutyl)amino}-1-phenylethanol]
IC50 (human full-length MKNK1 [1]): 48 nM
